One compound from patent US11779529B2, “Personal care composition” (Colgate-Palmolive Company, priority 2017, dated 2023) can be followed below.

In this assay the test system is Collagen I. Put plainly: Collagen I release from human dermal fibroblast cells, COL1A1 ELISA of supernatants. The class given is cell-based. The settings on record: 1 mL composition, 24 hours, 37° C., 5% CO2, average of 3 tests. As to the method: Each of the compositions of Table 3 was tested on human dermal fibroblast cells (Thermo Fisher Scientific, Gaithersburg, Md.) as follows: human dermal fibroblast cells were seeded in 6-well plates and grow until about 80% confluency. 1 mL of each composition was added to the wells in triplicate per composition. The cells were then incubated at 37° C., 5% CO2 for 24 hours and the supernatants were collected and analyzed for Collagen I release. Collagen I release in the supernatants was measured using COL1A1 ELISA kit (MyBioSource, San Diego, Calif.). The data in Table 3 represents the average value for 3 tests.
A general note: An ELISA detects its analyte on a solid surface through an enzyme-linked reagent.

Consider `NCCS(=O)(=O)O` [Solvent + 0.001% Taurine, Taurine], for which the “Collagen I” value was determined as 1.9 ng/mL.
